Results as given in patent publication US12077503B2, “Substituted cyclic amides and their use as herbicides” (FMC CORPORATION, priority 2015, dated 2024).

Key:
Experiment in all cases: Test C preemergence
Format in all cases: in vivo
[1] = tested on: Galium (catchweed bedstraw, Galium aparine); conditions: for Plant response rating, Galium: scale 0 to 100, 0 no effect, 100 complete control
Method in brief: (§1)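 Visual rating, 0–100 scale (0 = no effect, 100 = complete control) versus controls, 13–15 d after treatment. Compounds in non-phytotoxic solvent plus surfactant; applied preemergence to seeds in loam/sand soil or postemergence to 1- to 4-leaf plants (2–18 cm) in peat/vermiculite medium; greenhouse-held.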

[2] = tested on: barnyardgrass (Echinochloa crus-galli); conditions: for Plant response rating, Barnyardgrass: scale 0 to 100, 0 no effect, 100 complete control
Method in brief: as §1

corn (Zea mays) = conditions: for Plant response rating, Corn: scale 0 to 100, 0 no effect, 100 complete control
Method in brief: as §1

[3] = tested on: crabgrass, large (large crabgrass, Digitaria sanguinalis); conditions: for Plant response rating, Crabgrass, Large: scale 0 to 100, 0 no effect, 100 complete control
Method in brief: as §1

[4] = tested on: foxtail, giant (giant foxtail, Setaria faberii); conditions: for Plant response rating, Foxtail, Giant: scale 0 to 100, 0 no effect, 100 complete control
Method in brief: as §1

[5] = tested on: johnsongrass (Sorghum halepense); conditions: for Plant response rating, Johnsongrass: scale 0 to 100, 0 no effect, 100 complete control
Method in brief: as §1

[6] = tested on: lambsquarters (Chenopodium album); conditions: for Plant response rating, Lambsquarters: scale 0 to 100, 0 no effect, 100 complete control
Method in brief: as §1

[7] = tested on: morningglory (Ipomoea coccinea); conditions: for Plant response rating, Morningglory: scale 0 to 100, 0 no effect, 100 complete control
Method in brief: as §1

[8] = tested on: nutsedge, yellow (yellow nutsedge, Cyperus esculentus); conditions: for Plant response rating, Nutsedge, Yellow: scale 0 to 100, 0 no effect, 100 complete control
Method in brief: as §1

[9] = tested on: oilseed rape (Brassica napus); conditions: for Plant response rating, Oilseed Rape: scale 0 to 100, 0 no effect, 100 complete control
Method in brief: as §1

[10] = tested on: pigweed (Amaranthus retroflexus); conditions: for Plant response rating, Pigweed: scale 0 to 100, 0 no effect, 100 complete control
Method in brief: as §1

[11] = tested on: ragweed (common ragweed, Ambrosia elatior); conditions: for Plant response rating, Ragweed: scale 0 to 100, 0 no effect, 100 complete control
Method in brief: as §1

[12] = tested on: ryegrass, Italian (Italian ryegrass, Lolium multiflorum); conditions: for Plant response rating, Ryegrass, Italian: scale 0 to 100, 0 no effect, 100 complete control
Method in brief: as §1

soybean (Glycine max) = conditions: for Plant response rating, Soybean: scale 0 to 100, 0 no effect, 100 complete control
Method in brief: as §1

[13] = tested on: velvetleaf (Abutilon theophrasti); conditions: for Plant response rating, Velvetleaf: scale 0 to 100, 0 no effect, 100 complete control
Method in brief: as §1

[14] = tested on: waterhemp (common waterhemp, Amaranthus rudis); conditions: for Plant response rating, Waterhemp: scale 0 to 100, 0 no effect, 100 complete control
Method in brief: as §1

[15] = tested on: wheat (winter wheat, Triticum aestivum); conditions: for Plant response rating, Wheat: scale 0 to 100, 0 no effect, 100 complete control
Method in brief: as §1

[16] = 31 g ai/ha, 0 is no effect, 100 is complete control

Compound: Cc1ccc(C2CN(C)C(=O)C2C(=O)Nc2cccc(F)c2F)cc1 (centres unmarked) [Compound 662]
- Plant response rating (scale of 0 to 100), Galium [1, 16]: 90
- Plant response rating, Galium ([1]; 62 g ai/ha): 100
- Plant response rating, Galium ([1]; 125 g ai/ha): 100
- Plant response rating, Galium ([1]; 250 g ai/ha): 90
- Plant response rating (scale of 0 to 100), Barnyardgrass [2, 16]: 95
- Plant response rating, Barnyardgrass ([2]; 62 g ai/ha): 98
- Plant response rating, Barnyardgrass ([2]; 125 g ai/ha): 98
- Plant response rating, Barnyardgrass ([2]; 250 g ai/ha): 100
- Plant response rating (scale of 0 to 100), Corn (corn (Zea mays); [16]): 55
- Plant response rating, Corn (corn (Zea mays); 62 g ai/ha): 70
- Plant response rating, Corn (corn (Zea mays); 125 g ai/ha): 80
- Plant response rating, Corn (corn (Zea mays); 250 g ai/ha): 85
- Plant response rating (scale of 0 to 100), Crabgrass, Large [3, 16]: 98
- Plant response rating, Crabgrass, Large ([3]; 62 g ai/ha): 98
- Plant response rating, Crabgrass, Large ([3]; 125 g ai/ha): 100
- Plant response rating, Crabgrass, Large ([3]; 250 g ai/ha): 100
- Plant response rating (scale of 0 to 100), Foxtail, Giant [4, 16]: 95
- Plant response rating, Foxtail, Giant ([4]; 62 g ai/ha): 95
- Plant response rating, Foxtail, Giant ([4]; 125 g ai/ha): 95
- Plant response rating, Foxtail, Giant ([4]; 250 g ai/ha): 98
- Plant response rating (scale of 0 to 100), Johnsongrass [5, 16]: 60
- Plant response rating, Johnsongrass ([5]; 62 g ai/ha): 70
- Plant response rating, Johnsongrass ([5]; 125 g ai/ha): 90
- Plant response rating, Johnsongrass ([5]; 250 g ai/ha): 90
- Plant response rating (scale of 0 to 100), Lambsquarters [6, 16]: 100
- Plant response rating, Lambsquarters ([6]; 62 g ai/ha): 85
- Plant response rating, Lambsquarters ([6]; 125 g ai/ha): 100
- Plant response rating, Lambsquarters ([6]; 250 g ai/ha): 100
- Plant response rating (scale of 0 to 100), Morningglory [7, 16]: 0
- Plant response rating, Morningglory ([7]; 62 g ai/ha): 0
- Plant response rating, Morningglory ([7]; 125 g ai/ha): 30
- Plant response rating, Morningglory ([7]; 250 g ai/ha): 25
- Plant response rating (scale of 0 to 100), Nutsedge, Yellow [8, 16]: 0
- Plant response rating, Nutsedge, Yellow ([8]; 62 g ai/ha): 0
- Plant response rating, Nutsedge, Yellow ([8]; 125 g ai/ha): 0
- Plant response rating, Nutsedge, Yellow ([8]; 250 g ai/ha): 0
- Plant response rating (scale of 0 to 100), Oilseed Rape [9, 16]: 70
- Plant response rating, Oilseed Rape ([9]; 62 g ai/ha): 85
- Plant response rating, Oilseed Rape ([9]; 125 g ai/ha): 90
- Plant response rating, Oilseed Rape ([9]; 250 g ai/ha): 90
- Plant response rating (scale of 0 to 100), Pigweed [10, 16]: 70
- Plant response rating, Pigweed ([10]; 62 g ai/ha): 60
- Plant response rating, Pigweed ([10]; 125 g ai/ha): 75
- Plant response rating, Pigweed ([10]; 250 g ai/ha): 80
- Plant response rating (scale of 0 to 100), Ragweed [11, 16]: 70
- Plant response rating, Ragweed ([11]; 62 g ai/ha): 75
- Plant response rating, Ragweed ([11]; 125 g ai/ha): 80
- Plant response rating, Ragweed ([11]; 250 g ai/ha): 85
- Plant response rating (scale of 0 to 100), Ryegrass, Italian [12, 16]: 50
- Plant response rating, Ryegrass, Italian ([12]; 62 g ai/ha): 70
- Plant response rating, Ryegrass, Italian ([12]; 125 g ai/ha): 80
- Plant response rating, Ryegrass, Italian ([12]; 250 g ai/ha): 95
- Plant response rating (scale of 0 to 100), Soybean (soybean (Glycine max); [16]): 0
- Plant response rating, Soybean (soybean (Glycine max); 62 g ai/ha): 0
- Plant response rating, Soybean (soybean (Glycine max); 125 g ai/ha): 0
- Plant response rating, Soybean (soybean (Glycine max); 250 g ai/ha): 0
- Plant response rating (scale of 0 to 100), Velvetleaf [13, 16]: 35
- Plant response rating, Velvetleaf ([13]; 62 g ai/ha): 50
- Plant response rating, Velvetleaf ([13]; 125 g ai/ha): 70
- Plant response rating, Velvetleaf ([13]; 250 g ai/ha): 75
- Plant response rating (scale of 0 to 100), Waterhemp [14, 16]: 60
- Plant response rating, Waterhemp ([14]; 62 g ai/ha): 80
- Plant response rating, Waterhemp ([14]; 125 g ai/ha): 85
- Plant response rating, Waterhemp ([14]; 250 g ai/ha): 90
- Plant response rating (scale of 0 to 100), Wheat [15, 16]: 35
- Plant response rating, Wheat ([15]; 62 g ai/ha): 70
- Plant response rating, Wheat ([15]; 125 g ai/ha): 90
- Plant response rating, Wheat ([15]; 250 g ai/ha): 90
